# Laboratory results as given in US6737383B1, “Herbicidal oxadiazolidines” (priority 1999, dated 2004).
# Assays:
# bedstraw = assay: Test B pre/postemergence bedstraw; type: in vivo, Galium aparine
# In short: (§1)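 Herbicidal effect was estimated by eye on a ten-point control scale after plants spent twelve to sixteen days in a greenhouse following soil or foliar treatment. Foliar sprays targeted plants at one to four leaves; all doses were formulated in a non-phytotoxic solvent with surfactant.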
# blackgrass = assay: Test B pre/postemergence blackgrass; type: in vivo, Alopecurus myosuroides
# In short: as §1
# surinam grass = assay: Test B pre/postemergence surinam grass; type: in vivo, Brachiaria decumbens
# In short: as §1
# cocklebur = assay: Test B pre/postemergence cocklebur; type: in vivo, Xanthium strumarium
# In short: as §1
# corn = assay: Test B pre/postemergence corn; type: in vivo, Zea mays
# In short: as §1
# crabgrass = assay: Test B pre/postemergence crabgrass; type: in vivo, Digitaria sanguinalis
# In short: as §1
# giant foxtail = assay: Test B pre/postemergence giant foxtail; type: in vivo, Setaria faberii
# In short: as §1
# morningglory = assay: Test B pre/postemergence morningglory; type: in vivo, Ipomoea hederacea
# In short: as §1
# pigweed = assay: Test B pre/postemergence pigweed; type: in vivo, Amaranthus retroflexus
# In short: as §1
# rape = assay: Test B pre/postemergence rape; type: in vivo, Brassica napus
# In short: as §1
# soybean = assay: Test B pre/postemergence soybean; type: in vivo, Glycine max
# In short: as §1
# velvetleaf = assay: Test B pre/postemergence velvetleaf; type: in vivo, Abutilon theophrasti
# In short: as §1
# wheat = assay: Test B pre/postemergence wheat; type: in vivo, Triticum aestivum
# In short: as §1
# wild oat = assay: Test B pre/postemergence wild oat; type: in vivo, Avena fatua
# In short: as §1
# purple nutsedge = assay: Test B pre/postemergence purple nutsedge; type: in vivo, Cyperus rotundus
# In short: as §1
# [1] = Preemergence, Rate 62 g/ha, scale 0 to 10 (0 no effect, 10 complete control)
# [2] = Preemergence, Rate 125 g/ha, scale of 0 to 10 where 0 is no effect and 10 is complete control
# [3] = Preemergence, Rate 250 g/ha, scale 0 to 10 (0 no effect, 10 complete control)
# [4] = Preemergence, Rate 500 g/ha, scale of 0 to 10 where 0 is no effect and 10 is complete control
# [5] = Postemergence, Rate 62 g/ha, scale 0 to 10, 0 is no effect, 10 is complete control
# [6] = Postemergence, Rate 125 g/ha, scale of 0 to 10 where 0 is no effect and 10 is complete control
# [7] = Postemergence, Rate 250 g/ha, scale of 0 to 10, 0 is no effect, 10 is complete control
# [8] = Postemergence, Rate 500 g/ha, scale of 0 to 10 where 0 is no effect and 10 is complete control
# [9] = Preemergence, Rate 62 g/ha, scale of 0 to 10 where 0 is no effect and 10 is complete control
smiles,measurement,setting,value
COCCn1c(=O)on(C(=O)N(c2ccc(F)cc2)C(C)C)c1=O [Compound 627],Bedstraw plant response rating,bedstraw; [1],2
same,Bedstraw plant response rating,bedstraw; [2],2
same,"Plant response rating, Bedstraw",bedstraw; [3],8
same,"Plant response rating, Bedstraw",bedstraw; [4],8
same,"Plant response rating, Blackgrass",blackgrass; [5],8
same,"Plant response rating, Blackgrass",blackgrass; [6],8
same,Blackgrass plant response rating,blackgrass; [7],9
same,"Plant response rating, Blackgrass",blackgrass; [8],9
same,Blackgrass plant response rating,blackgrass; [1],8
same,Blackgrass plant response rating,blackgrass; [2],8
same,"Plant response rating, Blackgrass",blackgrass; [3],9
same,"Plant response rating, Blackgrass",blackgrass; [4],10
same,"Plant response rating, B. signalgrass",surinam grass; [5],3
same,"Plant response rating, B. signalgrass",surinam grass; [6],7
same,B. signalgrass plant response rating,surinam grass; [7],7
same,"Plant response rating, B. signalgrass",surinam grass; [8],8
same,B. signalgrass plant response rating,surinam grass; [1],5
same,B. signalgrass plant response rating,surinam grass; [2],5
same,"Plant response rating, B. signalgrass",surinam grass; [3],8
same,"Plant response rating, B. signalgrass",surinam grass; [4],9
same,"Plant response rating, Cocklebur",cocklebur; [5],0
same,"Plant response rating, Cocklebur",cocklebur; [6],0
same,Cocklebur plant response rating,cocklebur; [7],0
same,"Plant response rating, Cocklebur",cocklebur; [8],3
same,Cocklebur plant response rating,cocklebur; [1],6
same,Cocklebur plant response rating,cocklebur; [2],6
same,"Plant response rating, Cocklebur",cocklebur; [3],6
same,"Plant response rating, Cocklebur",cocklebur; [4],7
same,"Plant response rating, Corn",corn; [5],0
same,"Plant response rating, Corn",corn; [6],3
same,Corn plant response rating,corn; [7],7
same,"Plant response rating, Corn",corn; [8],8
same,Corn plant response rating,corn; [1],3
same,Corn plant response rating,corn; [2],4
same,"Plant response rating, Corn",corn; [3],6
same,"Plant response rating, Corn",corn; [4],9
same,"Plant response rating, Crabgrass",crabgrass; [5],8
same,"Plant response rating, Crabgrass",crabgrass; [6],8
same,Crabgrass plant response rating,crabgrass; [7],9
same,"Plant response rating, Crabgrass",crabgrass; [8],9
same,Crabgrass plant response rating,crabgrass; [1],7
same,Crabgrass plant response rating,crabgrass; [2],8
same,"Plant response rating, Crabgrass",crabgrass; [3],9
same,"Plant response rating, Crabgrass",crabgrass; [4],9
same,"Plant response rating, Giant foxtail",giant foxtail; [5],9
same,Giant foxtail plant response rating,giant foxtail; [7],9
same,"Plant response rating, Giant foxtail",giant foxtail; [8],9
same,Giant foxtail plant response rating,giant foxtail; [1],9
same,Giant foxtail plant response rating,giant foxtail; [2],10
same,"Plant response rating, Giant foxtail",giant foxtail; [3],10
same,"Plant response rating, Giant foxtail",giant foxtail; [4],10
same,"Plant response rating, Morningglory",morningglory; [5],3
same,"Plant response rating, Morningglory",morningglory; [6],6
same,Morningglory plant response rating,morningglory; [7],6
same,"Plant response rating, Morningglory",morningglory; [8],6
same,Morningglory plant response rating,morningglory; [1],6
same,Morningglory plant response rating,morningglory; [2],6
same,"Plant response rating, Morningglory",morningglory; [3],6
same,"Plant response rating, Morningglory",morningglory; [4],8
same,"Plant response rating, Redroot pigweed",pigweed; [5],2
same,"Plant response rating, Redroot pigweed",pigweed; [6],3
same,Redroot pigweed plant response rating,pigweed; [7],6
same,Redroot pigweed plant response rating,pigweed; [1],9
same,Redroot pigweed plant response rating,pigweed; [2],9
same,"Plant response rating, Redroot pigweed",pigweed; [3],10
same,"Plant response rating, Redroot pigweed",pigweed; [4],10
same,"Plant response rating, Rape",rape; [5],0
same,"Plant response rating, Rape",rape; [6],0
same,Rape plant response rating,rape; [7],0
same,"Plant response rating, Rape",rape; [8],5
same,Rape plant response rating,rape; [1],1
same,Rape plant response rating,rape; [2],3
same,"Plant response rating, Rape",rape; [3],9
same,"Plant response rating, Rape",rape; [4],10
same,"Plant response rating, Soybean",soybean; [5],2
same,"Plant response rating, Soybean",soybean; [6],4
same,Soybean plant response rating,soybean; [7],4
same,Soybean plant response rating,soybean; [1],0
same,Soybean plant response rating,soybean; [2],0
same,"Plant response rating, Soybean",soybean; [3],0
same,"Plant response rating, Soybean",soybean; [4],5
same,"Plant response rating, Velvetleaf",velvetleaf; [5],3
same,"Plant response rating, Velvetleaf",velvetleaf; [6],4
same,Velvetleaf plant response rating,velvetleaf; [7],8
same,Velvetleaf plant response rating,velvetleaf; [1],7
same,Velvetleaf plant response rating,velvetleaf; [2],8
same,"Plant response rating, Velvetleaf",velvetleaf; [3],10
same,"Plant response rating, Velvetleaf",velvetleaf; [4],10
same,"Plant response rating, Wheat",wheat; [5],2
same,"Plant response rating, Wheat",wheat; [6],3
same,Wheat plant response rating,wheat; [7],6
same,Wheat plant response rating,wheat; [1],0
same,Wheat plant response rating,wheat; [2],0
same,"Plant response rating, Wheat",wheat; [3],7
same,"Plant response rating, Wheat",wheat; [4],5
same,"Plant response rating, Wild oats",wild oat; [5],0
same,"Plant response rating, Wild oats",wild oat; [6],2
same,Wild oats plant response rating,wild oat; [7],6
same,Wild oats plant response rating,wild oat; [1],0
same,Wild oats plant response rating,wild oat; [2],3
same,"Plant response rating, Wild oats",wild oat; [3],5
same,"Plant response rating, Wild oats",wild oat; [4],5
same,"Plant response rating, Nutsedge",purple nutsedge; [5],3
same,Nutsedge plant response rating,purple nutsedge; [7],6
same,Nutsedge plant response rating,purple nutsedge; [1],7
same,Nutsedge plant response rating,purple nutsedge; [2],7
same,"Plant response rating, Nutsedge",purple nutsedge; [3],7
same,"Plant response rating, Nutsedge",purple nutsedge; [4],10
C=C(Cl)Cn1c(=O)on(C(=O)N(c2ccc(F)cc2F)C(C)C)c1=O [Compound 634],"Plant response rating, Bedstraw",bedstraw; [5],0
same,"Plant response rating, Bedstraw",bedstraw; [6],0
same,Bedstraw plant response rating,bedstraw; [7],0
same,Bedstraw plant response rating,bedstraw; [2],0
same,"Plant response rating, Blackgrass",blackgrass; [5],2
same,"Plant response rating, Blackgrass",blackgrass; [6],6
same,Blackgrass plant response rating,blackgrass; [7],8
same,"Plant response rating, Blackgrass",blackgrass; [8],8
same,Blackgrass plant response rating,blackgrass; [9],4
same,Blackgrass plant response rating,blackgrass; [2],6
same,"Plant response rating, Blackgrass",blackgrass; [3],8
same,"Plant response rating, Blackgrass",blackgrass; [4],9
same,"Plant response rating, B. signalgrass",surinam grass; [5],0
same,"Plant response rating, B. signalgrass",surinam grass; [6],0
same,B. signalgrass plant response rating,surinam grass; [7],0
same,"Plant response rating, B. signalgrass",surinam grass; [8],5
same,B. signalgrass plant response rating,surinam grass; [9],1
same,B. signalgrass plant response rating,surinam grass; [2],5
same,"Plant response rating, B. signalgrass",surinam grass; [3],7
same,"Plant response rating, B. signalgrass",surinam grass; [4],10
same,"Plant response rating, Cocklebur",cocklebur; [5],1
same,"Plant response rating, Cocklebur",cocklebur; [6],1
same,Cocklebur plant response rating,cocklebur; [7],2
same,"Plant response rating, Cocklebur",cocklebur; [8],2
same,Cocklebur plant response rating,cocklebur; [9],0
same,Cocklebur plant response rating,cocklebur; [2],0
same,"Plant response rating, Cocklebur",cocklebur; [3],0
same,"Plant response rating, Cocklebur",cocklebur; [4],0
same,"Plant response rating, Corn",corn; [5],0
same,"Plant response rating, Corn",corn; [6],0
same,Corn plant response rating,corn; [7],0
same,"Plant response rating, Corn",corn; [8],0
same,Corn plant response rating,corn; [9],0
same,Corn plant response rating,corn; [2],0
same,"Plant response rating, Corn",corn; [3],0
same,"Plant response rating, Corn",corn; [4],0
same,"Plant response rating, Crabgrass",crabgrass; [5],0
same,"Plant response rating, Crabgrass",crabgrass; [6],3
same,Crabgrass plant response rating,crabgrass; [7],7
same,"Plant response rating, Crabgrass",crabgrass; [8],9
same,Crabgrass plant response rating,crabgrass; [9],7
same,Crabgrass plant response rating,crabgrass; [2],8
same,"Plant response rating, Crabgrass",crabgrass; [3],10
same,"Plant response rating, Crabgrass",crabgrass; [4],10
same,"Plant response rating, Giant foxtail",giant foxtail; [5],4
same,"Plant response rating, Giant foxtail",giant foxtail; [6],8
same,Giant foxtail plant response rating,giant foxtail; [7],9
same,"Plant response rating, Giant foxtail",giant foxtail; [8],9
same,Giant foxtail plant response rating,giant foxtail; [9],9
same,Giant foxtail plant response rating,giant foxtail; [2],10
same,"Plant response rating, Giant foxtail",giant foxtail; [3],10
same,"Plant response rating, Giant foxtail",giant foxtail; [4],10
same,"Plant response rating, Morningglory",morningglory; [5],1
same,"Plant response rating, Morningglory",morningglory; [6],1
same,Morningglory plant response rating,morningglory; [7],2
same,"Plant response rating, Morningglory",morningglory; [8],2
same,Morningglory plant response rating,morningglory; [9],0
same,Morningglory plant response rating,morningglory; [2],0
same,"Plant response rating, Morningglory",morningglory; [3],0
same,"Plant response rating, Morningglory",morningglory; [4],0
same,"Plant response rating, Redroot pigweed",pigweed; [5],1
same,"Plant response rating, Redroot pigweed",pigweed; [6],2
same,Redroot pigweed plant response rating,pigweed; [7],2
same,Redroot pigweed plant response rating,pigweed; [9],0
same,Redroot pigweed plant response rating,pigweed; [2],4
same,"Plant response rating, Redroot pigweed",pigweed; [3],10
same,"Plant response rating, Redroot pigweed",pigweed; [4],10
same,"Plant response rating, Rape",rape; [5],0
same,"Plant response rating, Rape",rape; [6],0
same,Rape plant response rating,rape; [7],0
same,"Plant response rating, Rape",rape; [8],0
same,Rape plant response rating,rape; [9],0
same,Rape plant response rating,rape; [2],2
same,"Plant response rating, Rape",rape; [3],6
same,"Plant response rating, Rape",rape; [4],7
same,"Plant response rating, Soybean",soybean; [5],3
same,"Plant response rating, Soybean",soybean; [6],2
same,Soybean plant response rating,soybean; [7],3
same,Soybean plant response rating,soybean; [9],0
same,Soybean plant response rating,soybean; [2],0
same,"Plant response rating, Soybean",soybean; [3],0
same,"Plant response rating, Soybean",soybean; [4],0
same,"Plant response rating, Velvetleaf",velvetleaf; [5],0
same,"Plant response rating, Velvetleaf",velvetleaf; [6],0
same,Velvetleaf plant response rating,velvetleaf; [7],3
same,Velvetleaf plant response rating,velvetleaf; [9],0
same,Velvetleaf plant response rating,velvetleaf; [2],0
same,"Plant response rating, Velvetleaf",velvetleaf; [3],4
same,"Plant response rating, Velvetleaf",velvetleaf; [4],6
same,"Plant response rating, Wheat",wheat; [5],0
same,"Plant response rating, Wheat",wheat; [6],0
same,Wheat plant response rating,wheat; [7],0
same,Wheat plant response rating,wheat; [9],0
same,Wheat plant response rating,wheat; [2],0
same,"Plant response rating, Wheat",wheat; [3],0
same,"Plant response rating, Wheat",wheat; [4],0
same,"Plant response rating, Wild oats",wild oat; [5],0
same,"Plant response rating, Wild oats",wild oat; [6],0
same,Wild oats plant response rating,wild oat; [7],0
same,Wild oats plant response rating,wild oat; [9],2
same,Wild oats plant response rating,wild oat; [2],5
same,"Plant response rating, Wild oats",wild oat; [3],5
same,"Plant response rating, Wild oats",wild oat; [4],7
same,"Plant response rating, Nutsedge",purple nutsedge; [5],0
same,"Plant response rating, Nutsedge",purple nutsedge; [6],0
same,"Plant response rating, Nutsedge",purple nutsedge; [8],0
same,Nutsedge plant response rating,purple nutsedge; [9],0
same,Nutsedge plant response rating,purple nutsedge; [2],0
same,"Plant response rating, Nutsedge",purple nutsedge; [3],0
same,"Plant response rating, Nutsedge",purple nutsedge; [4],0
